Measurements published in patent US12678488B2, “Batch management method for improving farrowing rate or number of piglets born alive in swine” (priority 2024, dated 2026).
Marks after values point to notes of the source that are not given here.

Test system: Landrace x Large White binary sows
Assay: Pregnancy, farrowing rate, litter size and piglet index of gilts in batch farrowing with FTAI (Example 3)
Assay type: in vivo, pigs
Procedure: The term “farrowing rate”, as used herein, was calculated as the percentage of the number of farrowed sows divided by the number of mated gilts and sows.
For example, in the case of a certain batch of sows, the farrowing rate=the number of farrowing sows/the number of mated gilts and sows×100%.
The term “Piglet Index (PI)”, as used herein, refers to the total number of live piglets born per 100 gilts or sows that have been naturally mated or artificially inseminated. The calculation method is the average number of born alive per litter multiplied by the farrowing rate and then multiplied by the total gilts or sows (100).
The breed of the gilts used in this example was Landrace x Large White binary sows, the reserve sows were randomly divided into the following 4 groups, and the treatment method for each group was as follows:
batch farrowing with FTAI: the sows were fed with an altrenogest oral solution at 20 mg/gilt at the same time every day, for 18 days; PMSG at 1000 IU/gilt was injected intramuscularly 42 h after the last feeding with altrenogest, GnRH at 100 μg/gilt was further injected intramuscularly 80 h after the intramuscular injection of PMSG, a first timed insemination was performed 24 h after the injection of GnRH, and a second timed insemination was performed after 24 h.
Treatment group 1 (batch farrowing with FTAI, with supplementing with 1-[bis(4-cyanophenyl)methyl]-1,2,4-triazole (12 μg/kg·BW, orally once)): The hormone treatment and mating schemes for gilts were the same as those for gilts in the batch farrowing with FTAI. The gilts were administered orally once with 1-[bis(4-cyanophenyl)methyl]-1,2,4-triazole at 12 μg/kg·BW 8 h after the injection of PMSG.
Treatment group 2 (batch farrowing with FTAI, with supplementing with 1-[bis (4-cyanophenyl)methyl]-1,2,4-triazole (12 μg/kg·BW, orally twice)): The hormone treatment and mating schemes for gilts were the same as those for gilts in the batch farrowing with FTAI. The gilts were administered orally once with 1-[bis(4-cyanophenyl)methyl]-1,2,4-triazole at 12 μg/kg·BW 8 h after the injection of PMSG, and then orally once with 1-[bis(4-cyanophenyl)methyl]-1,2,4-triazole at 12 μg/kg·BW after another 24 h.
Treatment group 3 (batch farrowing with FTAI, supplemented with 1-[bis(4-cyanophenyl)methyl]-1,2,4-triazole (20 μg/kg·BW, orally in a single dose)): The hormone treatment and mating schemes for gilts were the same as those for gilts in the batch farrowing with FTAI. The gilts were administered orally once with 1-[bis(4-cyanophenyl)methyl]-1,2,4-triazole at 20 μg/kg·BW 8 h after the injection of PMSG.
The farrowing rate and piglet index of sows in the different treatment groups were calculated as follows:
wherein Piglet Index (PI), a comprehensive index to measure the overall reproductive performance of a sow population at present in production, refers to the number born alive from every 100 gilts or sows, who have undergone natural mating or artificial insemination.

[1] = Example 3, low-dose (treatment groups 1, 2, and 3), compared with batch farrowing with FTAI
[2] = Example 3, treatment group 1 (12 μg/kg·BW orally once), compared with batch farrowing with FTAI
[3] = Example 3, treatment groups 2 and 3
[4] = Example 3 Treatment group 1: 12 μg/kg·BW orally once, gilts
[5] = Example 3 Treatment group 2: 12 μg/kg·BW orally twice, 24 h apart, gilts
[6] = Example 3 Treatment group 3: 20 μg/kg·BW orally in a single dose, gilts

In the case of `N#Cc1ccc(C(c2ccc(C#N)cc2)n2cncn2)cc1` [1-[bis(4-cyanophenyl)methyl]-1,2,4-triazole], the estrus rate (Example 3, 20 μg/kg·BW group compared with 12 μg/kg·BW group) is reported as “slightly lower”, the Piglet index [1] is reported as “significantly increased” and the farrowing rate [1] is reported as “significantly increased”. The pregnancy rate [1] was “significantly increased”, the Healthy litter size [2] was “significantly higher” and the number born alive [2] was “significantly higher”. For the same compound, the Healthy litter size [3] was “increasing trend”, the number born alive [3] was “increasing trend” and the estrus rate (Example 3, treatment groups with different doses, compared with batch farrowing with FTAI) was “no significant difference”. The “Delivery rate (%)” value [4] was 88.00^b %, the “Estrus rate (%)” value [4] was 92.00% and the Healthy litter size [4] was 12.12 ± 0.32^b. For the same compound, the Live litter size [4] was 12.44 ± 0.30^b, the Piglet index [4] was 1094 and the “Pregnancy rate (%)” value [4] was 92.00^b %. For the same compound, the “Stillborn + mummy” value [4] was 1.80 ± 0.22, the “Total number born litter size” value [4] was 13.96 ± 0.30 and the Weak litter [4] was 0.24 ± 0.10. The “Delivery rate (%)” value [5] was 83.33^b %, the “Estrus rate (%)” value [5] was 93.75% and the Healthy litter size [5] was 11.72 ± 0.43^a. For the same compound, the Live litter size [5] was 12.00 ± 0.45^a, the Piglet index [5] was 1000 and the “Pregnancy rate (%)” value [5] was 95.83^b %. For the same compound, the “Stillborn + mummy” value [5] was 1.56 ± 0.16, the “Total number born litter size” value [5] was 13.76 ± 0.62 and the Weak litter [5] was 0.28 ± 0.09. For the same compound, the “Delivery rate (%)” value [6] was 81.48^b %, the “Estrus rate (%)” value [6] was 88.89% and the Healthy litter size [6] was 11.76 ± 0.37^a. For the same compound, the Live litter size [6] was 12.04 ± 0.42^a, the Piglet index [6] was 981 and the “Pregnancy rate (%)” value [6] was 85.19^b %. The “Stillborn + mummy” value [6] was 1.88 ± 0.39, the “Total number born litter size” value [6] was 14.04 ± 0.53 and the Weak litter [6] was 0.40 ± 0.10. The “live piglets (weaned piglets) increased by every 100 gilts” value (per 100 gilts, method of the disclosure versus batch farrowing with FTAI) was 190 live piglets.
